Values of other authors, collected in patent publication US12311052B2, “Mitochondrial performance enhancement nanoemulsion method” (Quicksilver Scientific, Inc., priority 2017, dated 2025).
Where two headings read alike, the source gives them in different places.

Key:
[1] = consumed orally
mice = conditions: PQQ deficient mice compared to PQQ supplemented mice
cells = conditions: inhibitors rotenone, 3-nitropropionic acid, antimycin A, sodium azide
Hepa1-6 mouse cells = conditions: 10-30 μM PQQ for 24-48 hours
[2] = oral administration; extensively metabolized to glucuronide conjugate by liver and intestine

Q: For `COC1=C(OC)C(=O)C(C/C=C(\C)CC/C=C(\C)CC/C=C(\C)CC/C=C(\C)CC/C=C(\C)CC/C=C(\C)CC/C=C(\C)CC/C=C(\C)CC/C=C(\C)CCC=C(C)C)=C(C)C1=O` [CoQ10, Coenzyme Q10], which bioavailability [1] is on record?
A: The bioavailability was roughly 10%.

Q: With `O=C(O)c1cc(C(=O)O)c2c(n1)C(=O)C(=O)c1cc(C(=O)O)[nH]c1-2.[Na].[Na]` [PQQ, Pyrroloquinoline quinone disodium salt] as the compound, how does the “reduction in the relative amount of mitochondria in the liver” value (mice) read?
A: The value was 20 to 30%.

Q: And the “protection of cells from mitochondrial inhibition” value (cells)?
A: The value was “protect cells from mitochondrial inhibition”.

Q: And the “citrate synthase and cytochrome c oxidase activity, Mitotracker staining, mitochondrial DNA content, cellular oxygen respiration” value (Hepa1-6 mouse cells)?
A: The value was “increased citrate synthase and cytochrome c oxidase activity, Mitotracker staining, mitochondrial DNA content, and cellular oxygen respiration”.

Q: Which bioavailability [2] does the source give for `Oc1ccc(/C=C/c2cc(O)cc(O)c2)cc1` [resveratrol, 3,5,4′-trihydroxy-trans-stilbene] here?
A: Its bioavailability is “about 0.5%”.
